Laboratory results taken from patent publication US6737383B1, “Herbicidal oxadiazolidines” (priority 1999, dated 2004).

Experiments:
sugar beet = experiment: Test B pre/postemergence sugar beet; type: in vivo, Beta vulgaris; conditions: for Sugarbeets plant response rating: scale of 0 to 10 where 0 is no effect and 10 is complete control
Procedure, shortened: (§1)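 Test chemicals in a non-phytotoxic solvent mixture with surfactant were sprayed preemergence onto planted seeds and postemergence onto plants 2 to 18 cm tall (1- to 4-leaf stage). After twelve to sixteen days in a greenhouse, injury was visually rated against untreated controls from 0 (no effect) to 10 (complete control).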

surinam grass = experiment: Test B pre/postemergence surinam grass; type: in vivo, Brachiaria decumbens
Procedure, shortened: as §1

wild oat = experiment: Test B pre/postemergence wild oat; type: in vivo, Avena fatua; conditions: for Wild oats plant response rating: scale of 0 to 10 where 0 is no effect and 10 is complete control
Procedure, shortened: as §1

velvetleaf = experiment: Test B pre/postemergence velvetleaf; type: in vivo, Abutilon theophrasti; conditions: for Velvetleaf plant response rating: scale of 0 to 10 where 0 is no effect and 10 is complete control
Procedure, shortened: as §1

wheat = experiment: Test B pre/postemergence wheat; type: in vivo, Triticum aestivum; conditions: for Wheat plant response rating: scale of 0 to 10 where 0 is no effect and 10 is complete control
Procedure, shortened: as §1

rape = experiment: Test B pre/postemergence rape; type: in vivo, Brassica napus; conditions: for Rape plant response rating: scale of 0 to 10 where 0 is no effect and 10 is complete control
Procedure, shortened: as §1

corn = experiment: Test B pre/postemergence corn; type: in vivo, Zea mays; conditions: for Corn plant response rating: scale of 0 to 10 where 0 is no effect and 10 is complete control
Procedure, shortened: as §1

rice = experiment: Test B flood test rice; type: in vivo, Oryza sativa
Procedure, shortened: (§2)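 Read-out is a visual response score from 0 (no effect) to 10 (complete control), assigned by comparison with untreated controls. Treatment was applied at the 2-leaf stage, and plants stayed in the greenhouse for twelve to sixteen days before scoring.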

purple nutsedge = experiment: Test B pre/postemergence purple nutsedge; type: in vivo, Cyperus rotundus; conditions: for Nutsedge plant response rating: scale of 0 to 10 where 0 is no effect and 10 is complete control
Procedure, shortened: as §1

bamyardgrass = experiment: Test B flood test barnyardgrass; type: in vivo, Echinochloa crus-galli
Procedure, shortened: as §2

smallflower flatsedge = experiment: Test B flood test smallflower flatsedge; type: in vivo, Cyperus difformis
Procedure, shortened: as §2

blackgrass = experiment: Test B pre/postemergence blackgrass; type: in vivo, Alopecurus myosuroides
Procedure, shortened: as §1

crabgrass = experiment: Test B pre/postemergence crabgrass; type: in vivo, Digitaria sanguinalis; conditions: for Crabgrass plant response rating: scale of 0 to 10 where 0 is no effect and 10 is complete control
Procedure, shortened: as §1

bedstraw = experiment: Test B pre/postemergence bedstraw; type: in vivo, Galium aparine; conditions: Preemergence, scale of 0 to 10 where 0 is no effect and 10 is complete control
Procedure, shortened: as §1

giant foxtail = experiment: Test B pre/postemergence giant foxtail; type: in vivo, Setaria faberii; conditions: for Giant foxtail plant response rating: scale of 0 to 10 where 0 is no effect and 10 is complete control
Procedure, shortened: as §1

duck salad = experiment: Test B flood test duck salad; type: in vivo, Heteranthera limosa
Procedure, shortened: as §2

[1] = Postemergence, Rate 125 g/ha, scale 0 to 10, 0 is no effect, 10 is complete control
[2] = Preemergence, Rate 62 g/ha, scale 0 to 10 (0 no effect, 10 complete control)
[3] = Rate 500 g/ha, Postemergence, scale 0 to 10, 0 no effect, 10 complete control
[4] = Preemergence, Rate 250 g/ha, scale of 0 to 10 where 0 is no effect and 10 is complete control
[5] = Preemergence, Rate 500 g/ha, scale of 0 to 10 where 0 is no effect and 10 is complete control
[6] = Rate 62 g/ha, Postemergence, scale of 0 to 10 where 0 is no effect and 10 is complete control
[7] = Rate 250 g/ha, Postemergence, scale of 0 to 10 where 0 is no effect and 10 is complete control
[8] = Postemergence (flood test), Rate 125 g/ha, scale 0 to 10, 0 is no effect, 10 is complete control
[9] = Rate 62 g/ha, Postemergence (flood test species), scale of 0 to 10 where 0 is no effect and 10 is complete control
[10] = Rate 62 g/ha, flood test species, Pre-emergence, visual evaluation after twelve to sixteen days
[11] = Rate 125 g/ha, Pre-emergence, flood test species, scale 0 to 10 where 0 is no effect and 10 is complete control
[12] = Rate 250 g/ha, Pre-emergence, flood-test species, scale 0 to 10, 0 is no effect, 10 is complete control
[13] = Rate 500 g/ha, listed under Postemergence (flood test species), scale 0 to 10, 0 no effect, 10 complete control
[14] = Rate 500 g/ha, Pre-emergence, flood test species, scale 0 to 10 (0 no effect, 10 complete control)

CC(C)N(C(=O)n1oc(=O)n(C2CCC2)c1=O)c1ccc(F)cc1F [Compound 351]
8: Sugarbeets plant response rating (sugar beet; Preemergence, Rate 500 g/ha) | Plant response rating, S. Flatsedge (smallflower flatsedge; [13]) | Blackgrass plant response rating (blackgrass; [5])
0: Plant response rating, Sugarbeets (sugar beet; [1]) | Sugarbeets plant response rating (sugar beet; Rate 62 g/ha, Postemergence) | Plant response rating, B. signalgrass (surinam grass; [1]) | Plant response rating, B. signalgrass (surinam grass; [2]) | B. signalgrass plant response rating (0 to 10 scale, 0 is no effect, 10 is complete control) (surinam grass; Preemergence, Rate 125 g/ha) | B. signalgrass plant response rating (surinam grass; [6]) | Plant response rating, B. signalgrass (surinam grass; [7]) | Plant response rating, Wild oats (wild oat; [1]) | Plant response rating, Wild oats (wild oat; [2]) | Wild oats plant response rating (0 to 10 scale) (wild oat; Preemergence, Rate 125 g/ha) | Wild oats plant response rating (wild oat; Rate 62 g/ha, Postemergence) | Plant response rating, Velvetleaf (velvetleaf; [1]) | Plant response rating, Velvetleaf (velvetleaf; [2]) | Velvetleaf plant response rating (velvetleaf; Rate 62 g/ha, Postemergence) | Plant response rating, Wheat (wheat; [1]) | Plant response rating, Wheat (wheat; [2]) | Wheat plant response rating (0 to 10 scale) (wheat; Preemergence, Rate 125 g/ha) | Wheat plant response rating (wheat; Preemergence, Rate 250 g/ha) | Wheat plant response rating (wheat; Rate 62 g/ha, Postemergence) | Plant response rating, Rape (rape; [1]) | Plant response rating, Rape (rape; [2]) | Rape plant response rating (rape; Rate 62 g/ha, Postemergence) | Plant response rating, Corn (corn; [1]) | Plant response rating, Corn (corn; [2]) | Corn plant response rating (0 to 10 scale) (corn; Preemergence, Rate 125 g/ha) | Corn plant response rating (corn; Rate 62 g/ha, Postemergence) | Plant response rating, Corn (corn; [3]) | Plant response rating, Rice (rice; [8]) | Rice plant response rating (rice; [9]) | Plant response rating, Rice (0 to 10 scale, 0 is no effect, 10 is complete control) (rice; [10]) | Rice plant response rating (rice; [11]) | Rice plant response rating (rice; [12]) | Plant response rating, Rice (rice; [13]) | Rice plant response rating (rice; [14]) | Plant response rating, Nutsedge (purple nutsedge; [1]) | Plant response rating, Nutsedge (purple nutsedge; [2]) | Nutsedge plant response rating (0 to 10 scale) (purple nutsedge; Preemergence, Rate 125 g/ha) | Nutsedge plant response rating (purple nutsedge; Preemergence, Rate 250 g/ha) | Nutsedge plant response rating (purple nutsedge; Rate 62 g/ha, Postemergence) | Plant response rating, Nutsedge (purple nutsedge; [3]) | Barnyardgrass plant response rating (bamyardgrass; [9]) | Plant response rating, Barnyardgrass (0 to 10 scale, 0 is no effect, 10 is complete control) (bamyardgrass; [10]) | Barnyardgrass plant response rating (bamyardgrass; [11]) | Barnyardgrass plant response rating (bamyardgrass; [12]) | Barnyardgrass plant response rating (bamyardgrass; [14]) | S. Flatsedge plant response rating (smallflower flatsedge; [9]) | Plant response rating, S. Flatsedge (0 to 10 scale, 0 is no effect, 10 is complete control) (smallflower flatsedge; [10]) | S. Flatsedge plant response rating (smallflower flatsedge; [11]) | S. Flatsedge plant response rating (smallflower flatsedge; [12]) | S. Flatsedge plant response rating (smallflower flatsedge; [14]) | Plant response rating, Blackgrass (blackgrass; [2]) | Blackgrass plant response rating (blackgrass; [6]) | Crabgrass plant response rating (crabgrass; Rate 62 g/ha, Postemergence) | Giant foxtail plant response rating (giant foxtail; Rate 62 g/ha, Postemergence) | Plant response rating, Ducksalad (duck salad; [8]) | Ducksalad plant response rating (duck salad; [9]) | Plant response rating, Ducksalad (0 to 10 scale, 0 is no effect, 10 is complete control) (duck salad; [10]) | Ducksalad plant response rating (duck salad; [11]) | Ducksalad plant response rating (duck salad; [12]) | Ducksalad plant response rating (duck salad; [14])
9: Rape plant response rating (rape; Preemergence, Rate 500 g/ha) | Nutsedge plant response rating (purple nutsedge; Preemergence, Rate 500 g/ha) | Plant response rating, Crabgrass (crabgrass; [3]) | Bedstraw plant response rating (bedstraw; Rate 250 g/ha) | Plant response rating, Giant foxtail (giant foxtail; [3])
7: Plant response rating, Crabgrass (crabgrass; [2]) | Plant response rating, Giant foxtail (giant foxtail; [1])
4: B. signalgrass plant response rating (surinam grass; [5]) | Plant response rating, B. signalgrass (surinam grass; [3]) | Wild oats plant response rating (wild oat; Preemergence, Rate 500 g/ha) | Velvetleaf plant response rating (velvetleaf; Preemergence, Rate 250 g/ha) | Plant response rating, Blackgrass (blackgrass; [7]) | Plant response rating, Blackgrass (blackgrass; [3]) | Plant response rating, Ducksalad (duck salad; [13])
10: Crabgrass plant response rating (0 to 10 scale) (crabgrass; Preemergence, Rate 125 g/ha) | Crabgrass plant response rating (crabgrass; Preemergence, Rate 250 g/ha) | Crabgrass plant response rating (crabgrass; Preemergence, Rate 500 g/ha) | Bedstraw plant response rating (bedstraw; Rate 500 g/ha) | Plant response rating, Giant foxtail (giant foxtail; [2]) | Giant foxtail plant response rating (0 to 10 scale) (giant foxtail; Preemergence, Rate 125 g/ha) | Giant foxtail plant response rating (giant foxtail; Preemergence, Rate 250 g/ha) | Giant foxtail plant response rating (giant foxtail; Preemergence, Rate 500 g/ha)
1: Plant response rating, Crabgrass (crabgrass; [1])
5: Plant response rating, Wild oats (wild oat; [3]) | Velvetleaf plant response rating (velvetleaf; Preemergence, Rate 500 g/ha) | Plant response rating, Rape (rape; [3]) | Plant response rating, Barnyardgrass (bamyardgrass; [13])
3: Velvetleaf plant response rating (0 to 10 scale) (velvetleaf; Preemergence, Rate 125 g/ha) | Rape plant response rating (0 to 10 scale) (rape; Preemergence, Rate 125 g/ha) | Corn plant response rating (corn; Preemergence, Rate 250 g/ha) | Plant response rating, Barnyardgrass (bamyardgrass; [8]) | Plant response rating, Barnyardgrass (bamyardgrass; Rate 250 g/ha, Postemergence (flood test species), scale of 0 to 10 where 0 is no effect and 10 is complete control) | Blackgrass plant response rating (blackgrass; [4])
6: Sugarbeets plant response rating (sugar beet; Preemergence, Rate 250 g/ha) | Plant response rating, Velvetleaf (velvetleaf; [3]) | Rape plant response rating (rape; Preemergence, Rate 250 g/ha) | Corn plant response rating (corn; Preemergence, Rate 500 g/ha) | Plant response rating, S. Flatsedge (smallflower flatsedge; [8])
2: Plant response rating, Sugarbeets (sugar beet; [2]) | Sugarbeets plant response rating (0 to 10 scale) (sugar beet; Preemergence, Rate 125 g/ha) | Plant response rating, Sugarbeets (sugar beet; [3]) | B. signalgrass plant response rating (surinam grass; [4]) | Wild oats plant response rating (wild oat; Preemergence, Rate 250 g/ha) | Wheat plant response rating (wheat; Preemergence, Rate 500 g/ha) | Plant response rating, Wheat (wheat; [3]) | Plant response rating, Blackgrass (blackgrass; [1]) | Blackgrass plant response rating (0 to 10 scale) (blackgrass; Preemergence, Rate 125 g/ha)
